Among the data in ChEMBL document CHEMBL5729070, “Substituted pyrrolo[1,2-a]pyrazines and pyrrolo[1,2-a][1,4]diazepines as TREX1 inhibitors” (2022) are IC50 values, retold here.

Broadly, the IC50 is the concentration that gives 50% inhibition. A higher IC50 goes with a need for much substance.

This test is described as follows: Exonuclease Assay: To evaluate the effect of compounds on TREX1 activity, test compounds were serially diluted (11-point, 3-fold) from 10 mM stock solutions and delivered to 384-well low-volume assay plates in 80 nL DMSO using an acoustic dispenser. Next, 4 μL of human TREX1 (0.5 nM), or murine TREX1 (1 nM), diluted in assay buffer (20 mM Tris pH 7.5, 5 mM MgCl2, 100 μg/mL BSA, 0.002% Triton X-100, 2 mM DTT), was added to the assay plate. After incubating for 30 minutes, 4 μL of labeled DNA oligonucleotide (500 nM) in assay buffer was added to initiate TREX1 exonuclease activity. The reaction was allowed to proceed for 45 minutes at room temperature prior to the addition of 4 μL of 150 mM EDTA to halt TREX1 activity. Assay plates were equilibrated for an additional 30 minutes and read on an EnVision Plate Reader (Perkin Elmer) to measure fluorescence emission at 535 nm following excitation at 485 nm. Fluorescence was plotted as a function of log molar compound concentration and fit to four-parameter dose-response equation to determine compound IC50.

Each structure is given as a SMILES string.

Consider `CC(C)C[C@H](C(=O)NCc1ccc(Cl)c(Cl)c1)N1CCC(C=[S+](C)([O-])c2ccccc2)N2C[C@H](N)C[C@H]2C1=O` (some centres not stated), for which the IC50 is under 1 µM.
Consider `CC(C)C[C@H](NC(=O)Cc1ccc(Cl)c(Cl)c1)N1CCC(CCc2ccccc2)N2C[C@H](N)C[C@H]2C1=O` (some centres not stated), for which the half-inhibitory concentration (IC50) entry was “in the range around 5.5 µM”.
